Patent US20250000881A1, “TREATMENT OF TREATMENT RESISTANT […] PSILOCYBIN” (COMPASS […], priority 2021, published 2025)

Test system: adult subjects with TRD
Assay: Phase 2b randomised double-blind trial in TRD: MADRS total score, response, remission, sustained response
Format: in vivo, human
Conditions: for Protocol-defined sustained response (MADRS response criteria from week 3 until week 12): up to week 12
Protocol: Studies with more rigorous designs are needed to better the therapeutic potential of psilocybin in treatment-resistant depression (TRD). The aim of this study was to assess the effectiveness of 3 different doses of psilocybin (1 mg, 10 mg, and 25 mg) in TRD.
This was a Phase 2b, international multicentre, randomized, fixed dose, double-blind trial. The study population included adult men and women, 18 years of age and older, with TRD. […] Augmentation counts as a second treatment, provided it was approved for the adjunctive treatment of MDD in that country.
The treatment period was determined the optimal therapeutic dose; 233 subjects were randomised in an approximately 1:1:1 ratio to receive 1 mg psilocybin (79 subjects), 10 mg psilocybin (75 subjects), or 25 mg psilocybin (79 subjects). Average patient baseline MADRS values were 31.9 in the 25 mg group, 33.0 in the 10 mg group, and 32.7 in the 1 mg group. This represents moderate to severe depression (≥31=cut-off for severe depression based on MADRS).
The primary objective of this study was to evaluate the efficacy of psilocybin (25 mg or 10 mg) compared to 1 mg, administered under supportive conditions to adult subjects with TRD, in improving depressive symptoms, as assessed by the change in the Montgomery-Asberg Depression Rating Scale (MADRS) total score from baseline. Baseline is defined as the assessment score obtained on Day-1. The primary time point is week 3; this variable was analyzed for the change from Baseline to day 1, and weeks 1, 3, 6, 9, and 12 of the study.
Additional objectives of this study were to assess the efficacy of psilocybin compared to 1 mg psilocybin on the: • (a) proportion of subjects with response defined as a ≥50% decrease in MADRS total score from baseline to week 3. This was assessed at day 1 and at weeks 1, 6, 9, and 12 of the study. • (b) proportion of subjects who have a sustained response at week 12. Sustained response is defined as the proportion of patients fulfilling response criteria at any visit up to and including week 3, that also fulfils response criteria at all subsequent visits up to and including week 12. Response is defined as ≥50% decrease in MADRS total score from baseline.
Subjects were randomized to the appropriate therapy after it was confirmed at baseline (Visit 2) that the subject remained eligible to participate in the study. Randomization was stratified by country. Each subject was assigned 1 treatment bottle containing 5 capsules packaged in a double-blind fashion, depending on the randomized treatment arm, the bottle will contain 1 of the following: • (a) 10-mg treatment bottle: 2×5-mg capsules and 3×placebo capsules; • (b) 25-mg treatment bottle: 5×5-mg capsules; or • (c) 1-mg treatment bottle: 1×1-mg capsule and 4×placebo capsules.
The change from baseline in MADRS total score at week 3 will be evaluated with a mixed effects model for repeated measures analysis. The model includes treatment, visit, study site, prior psychedelic experience, treatment by visit interaction, subject as a random effect, and baseline MADRS total score. Comparison of the psilocybin optimal dose versus 1 mg psilocybin was performed at the 0.05 testing level. A sensitivity analysis was performed on the primary mixed model repeated measures model adding treatment by study site or country interaction into the model. If it was significant (at the 10% level), then further investigations of sites were performed.
[…] additional efficacy endpoints that are dichotomous variables (proportion of subjects who are responders, remitters, and sustained responders) were analyzed using the Cochran Mantel Haenszel chi square test, stratified by country, to compare the psilocybin optimal therapeutic dose versus 1 mg psilocybin. A stepdown procedure to correct for multiplicity was employed. […]

## CN(C)CCc1c[nH]c2cccc(OP(=O)(O)O)c12 [COMP360, psilocybin]
1 mg (N = 79), Day 2
  MADRS total score change from baseline, LS mean: −9.0
1 mg (N = 79), Week 1
  MADRS total score change from baseline, LS mean: −6.8
1 mg (N = 79), Week 3
  MADRS total score change from baseline, LS mean: −5.5
1 mg (N = 79), Week 6
  MADRS total score change from baseline, LS mean: −6.3
1 mg (N = 79), Week 9
  MADRS total score change from baseline, LS mean: −5.4
1 mg (N = 79), Week 12
  MADRS total score change from baseline, LS mean: −6.0
1 mg group
  Sustained response (MADRS response at week 3 and week 12 and at least one of week 6 and week 9): 10.1%
  Protocol-defined sustained response (MADRS response criteria from week 3 until week 12): 10.1%
10 mg (N = 75), Day 2
  MADRS total score change from baseline, LS mean: −12.0
10 mg (N = 75), Week 1
  MADRS total score change from baseline, LS mean: −9.1
10 mg (N = 75), Week 3
  MADRS total score change from baseline, LS mean: −7.9
10 mg (N = 75), Week 6
  MADRS total score change from baseline, LS mean: −6.0
10 mg (N = 75), Week 9
  MADRS total score change from baseline, LS mean: −6.1
10 mg (N = 75), Week 12
  MADRS total score change from baseline, LS mean: −5.7
10 mg vs 1 mg, Day 2
  MADRS total score change from baseline, LS mean diff vs 1 mg: −3.0
10 mg vs 1 mg, Week 1
  MADRS total score change from baseline, LS mean diff vs 1 mg: −2.2
10 mg vs 1 mg, Week 3
  MADRS total score change from baseline, LS mean diff vs 1 mg: −2.4
10 mg vs 1 mg, Week 6
  MADRS total score change from baseline, LS mean diff vs 1 mg: 0.3
10 mg vs 1 mg, Week 9
  MADRS total score change from baseline, LS mean diff vs 1 mg: −0.7
10 mg vs 1 mg, Week 12
  MADRS total score change from baseline, LS mean diff vs 1 mg: 0.3
25 mg (N = 79), Day 2
  MADRS total score change from baseline, LS mean: −15.0
25 mg (N = 79), Week 1
  MADRS total score change from baseline, LS mean: −13.1
25 mg (N = 79), Week 3
  MADRS total score change from baseline, LS mean: −12.0
25 mg (N = 79), Week 6
  MADRS total score change from baseline, LS mean: −11.7
25 mg (N = 79), Week 9
  MADRS total score change from baseline, LS mean: −9.4
25 mg (N = 79), Week 12
  MADRS total score change from baseline, LS mean: −9.6
25 mg group
  Sustained response (MADRS response at week 3 and week 12 and at least one of week 6 and week 9): 24.1%
  Protocol-defined sustained response (MADRS response criteria from week 3 until week 12): 20.3%
25 mg vs 1 mg, Day 2
  MADRS total score change from baseline, LS mean diff vs 1 mg: −5.9
25 mg vs 1 mg, Week 1
  MADRS total score change from baseline, LS mean diff vs 1 mg: −6.3
25 mg vs 1 mg, Week 3 (primary endpoint)
  MADRS total score change from baseline, LS mean diff vs 1 mg: −6.6
25 mg vs 1 mg, Week 6
  MADRS total score change from baseline, LS mean diff vs 1 mg: −5.3
25 mg vs 1 mg, Week 9
  MADRS total score change from baseline, LS mean diff vs 1 mg: −4.0
25 mg vs 1 mg, Week 12
  MADRS total score change from baseline, LS mean diff vs 1 mg: −3.6
